Columns and labels:
[1] = Surfactant combinations giving clear aqueous dispersions (maximum hydrophobic surfactant, visual optical clarity); conditions: for approximate maximum grams of hydrophobic surfactant per 100 g of hydrophilic surfactant giving acceptable optical clarity: 10× aqueous dispersion, no solubilizer
[2] = value reported by the manufacturer of the commercial product, a rough average, or inventors' judgment; cited from earlier work
[3] = hydrophilic surfactant Cremophor RH40 + 20% Ethanol
[4] = hydrophilic surfactant Cremophor RH40 + 20% Glycofurol
[5] = hydrophilic surfactant Cremophor RH40 + 20% Triacetin
[6] = hydrophilic surfactant Cremophor RH40, solubilizer (None), reproduced from Table 19
[7] = hydrophilic surfactant PEG-8 Capric/Caprylic (Labrasol)
[8] = hydrophilic surfactant PEG-25 Glyceryl trioleate (Tagat TO)
[9] = hydrophilic surfactant PEG-35 Castor Oil (Incrocas 35)
[10] = hydrophilic surfactant PEG-40H Castor Oil (Cremophor RH-40)
[11] = hydrophilic surfactant PEG-60 Corn Oil (Crovol M-70)
[12] = hydrophilic surfactant Polysorbate 80 (Tween 80)
[13] = hydrophilic surfactant Polysorbate-20 (Tween 20)

Compound | approximate maximum grams of hydrophobic surfactant per 100 g of hydrophilic surfactant giving a clear aqueous dispersion [1, 3] | approximate maximum grams of hydrophobic surfactant per 100 g of hydrophilic surfactant giving a clear aqueous dispersion [1, 4] | approximate maximum grams of hydrophobic surfactant per 100 g of hydrophilic surfactant giving a clear aqueous dispersion ([1]; hydrophilic surfactant Cremophor RH40 + 20% PEG-400) | approximate maximum grams of hydrophobic surfactant per 100 g of hydrophilic surfactant giving a clear aqueous dispersion [1, 5] | approximate maximum grams of hydrophobic surfactant per 100 g of hydrophilic surfactant giving a clear aqueous dispersion [1, 6] | approximate maximum grams of hydrophobic surfactant per 100 g of hydrophilic surfactant giving acceptable optical clarity [1, 7] | approximate maximum grams of hydrophobic surfactant per 100 g of hydrophilic surfactant giving acceptable optical clarity [1, 8] | approximate maximum grams of hydrophobic surfactant per 100 g of hydrophilic surfactant giving acceptable optical clarity [1, 9] | approximate maximum grams of hydrophobic surfactant per 100 g of hydrophilic surfactant giving acceptable optical clarity [1, 10] | approximate maximum grams of hydrophobic surfactant per 100 g of hydrophilic surfactant giving acceptable optical clarity [1, 11] | approximate maximum grams of hydrophobic surfactant per 100 g of hydrophilic surfactant giving acceptable optical clarity [1, 12] | approximate maximum grams of hydrophobic surfactant per 100 g of hydrophilic surfactant giving acceptable optical clarity [1, 13] | HLB [2] | effect of added solubilizer on the relative amount of hydrophobic surfactant that can be used ([1]; Cremophor RH 40 hydrophilic surfactant, 20% solubilizer)
mono- and diacetylated monoglycerides [Mono- and monoglycerides] | 80 g per 100 g of hydrophilic sur | 80 g per 100 g of hydrophilic sur | 80 g per 100 g of hydrophilic sur | 80 g per 100 g of hydrophilic sur | 80 g per 100 g of hydrophilic sur | 10 g per 100 g of hydrophilic sur | 10 g per 100 g of hydrophilic sur | 80 g per 100 g of hydrophilic sur | 80 g per 100 g of hydrophilic sur | 10 g per 100 g of hydrophilic sur | 15 g per 100 g of hydrophilic sur | 20 g per 100 g of hydrophilic sur | 3.8-4 | –
CCCCCCCC/C=C\CCCCCCCC(=O)OCC [Ethyl oleate] | 60 g per 100 g of hydrophilic sur | 60 g per 100 g of hydrophilic sur | – | 60 g per 100 g of hydrophilic sur | 60 g per 100 g of hydrophilic sur | 10 g per 100 g of hydrophilic sur | 10 g per 100 g of hydrophilic sur | 40 g per 100 g of hydrophilic sur | 60 g per 100 g of hydrophilic sur | 60 g per 100 g of hydrophilic sur | 10 g per 100 g of hydrophilic sur | 10 g per 100 g of hydrophilic sur | <10 | negligible
